Like-named read-outs stand apart in the source and are kept apart here.
Experiments:
DYRK1A [1] = target: T1, DYRK1A (Homo sapiens (Human), UniProt Q13627); experiment: FRET-based LanthaScreen Eu Kinase Binding Assay (Life Technologies); conditions: read-out: Screening (30 μM) LifeTech: % DYRK1A inhibition at 30 μM
Experimental: (§1) DYRK1A Binding Assays. Compounds were tested for DYRK1A binding activity at two different commercial kinase profiling services, Life Technologies and DiscoverX. […] Compounds were screened for DYRK1A activity at a single concentration of 30 μM in duplicates.

DYRK1A [2] = target: T1, DYRK1A; experiment: KINOMEscan Assay (DiscoverX), DYRK1A binding; conditions: for remaining binding at 30 µM: read-out: Screening (30 μM) DiscoverX: primary screen binding interactions, % DMSO Ctrl; for Kd: eleven serial three fold dilutions (in duplicate)
Experimental: as §1

Compound	inhibition at 30 µM (DYRK1A [1]; 30 μM single concentration)	remaining binding at 30 µM (DYRK1A [2])	inhibition at 30 µM (DYRK1A [1])	Kd (DYRK1A [2])
CNC1=NN=C(c2ccc3[nH]c(=O)[nH]c3c2)CS1 [Compound 3-2, N-methyl-5-(benzo[d]imidazol-2(3H)-one)-6H-1,3,4-thiadiazin-2-amine]	63%	0.5%		
CCNC1=NN=C(c2ccc3[nH]c(=O)[nH]c3c2)CS1 [Compound 3-3, N-ethyl-5-(benzo[d]imidazol-2(3H)-one)-6H-1,3,4-thiadiazin-2-amine]	69%	0%		
CCCNC1=NN=C(c2ccc3[nH]c(=O)[nH]c3c2)CS1 [Compound 3-4, N-propyl-5-(benzo[d]imidazol-2(3H)-one)-6H-1,3,4-thiadiazin-2-amine]	48%	2.9%		
CCCCNC1=NN=C(c2ccc3[nH]c(=O)[nH]c3c2)CS1 [Compound 3-5, N-butyl-5-(benzo[d]imidazol-2(3H)-one)-6H-1,3,4-thiadiazin-2-amine]	24%	0%		
CC(C)NC1=NN=C(c2ccc3[nH]c(=O)[nH]c3c2)CS1 [Compound 3-6, N-isopropyl-5-(benzo[d]imidazol-2(3H)-one)-6H-1,3,4-thiadiazin-2-amine]	59%	2.3%		
CC(C)(C)NC1=NN=C(c2ccc3[nH]c(=O)[nH]c3c2)CS1 [Compound 3-7, N-t-butyl-5-(benzo[d]imidazol-2(3H)-one)-6H-1,3,4-thiadiazin-2-amine]	46%	0.75%		
O=c1[nH]c2ccc(C3=NN=C(NCc4ccc(Cl)cc4)SC3)cc2[nH]1 [Compound 3-12, N-(4-chlorobenzyl)-5-(benzo[d]imidazol-2(3H)-one)-6H-1,3,4-thiadiazin-2-amine]		19%	93%	185 nM
O=c1[nH]c2ccc(C3=NN=C(NCc4cccc(Cl)c4)SC3)cc2[nH]1 [Compound 3-13, N-(3-chlorobenzyl)-5-(benzo[d]imidazol-2(3H)-one)-6H-1,3,4-thiadiazin-2-amine]				420 nM
O=c1[nH]c2ccc(C3=NN=C(NCc4ccccc4Cl)SC3)cc2[nH]1 [Compound 3-14, N-(2-chlorobenzyl)-5-(benzo[d]imidazol-2(3H)-one)-6H-1,3,4-thiadiazin-2-amine]				840 nM
O=c1[nH]c2ccc(C3=NN=C(NCc4ccc(F)cc4)SC3)cc2[nH]1 [Compound 3-15, N-(4-fluorobenzyl)-5-(benzo[d]imidazol-2(3H)-one)-6H-1,3,4-thiadiazin-2-amine]		8.9%	95%	
O=c1[nH]c2ccc(C3=NN=C(NCc4cccc(F)c4)SC3)cc2[nH]1 [Compound 3-16, N-(3-fluorobenzyl)-5-(benzo[d]imidazol-2(3H)-one)-6H-1,3,4-thiadiazin-2-amine]				900 nM
O=c1[nH]c2ccc(C3=NN=C(NCc4ccc(C(F)(F)F)cc4)SC3)cc2[nH]1 [Compound 3-18, N-(4-trifluoromethylbenzyl)-5-(benzo[d]imidazol-2(3H)-one)-6H-1,3,4-thiadiazin-2-amine]		40%	53%	
O=c1[nH]c2ccc(C3=NN=C(NCc4cccc(C(F)(F)F)c4)SC3)cc2[nH]1 [Compound 3-19, N-(3-trifluoromethylbenzyl)-5-(benzo[d]imidazol-2(3H)-one)-6H-1,3,4-thiadiazin-2-amine]		23%	20%	
O=c1[nH]c2ccc(C3=NN=C(NCc4ccccc4C(F)(F)F)SC3)cc2[nH]1 [Compound 3-20, N-(2-trifluoromethylbenzyl)-5-(benzo[d]imidazol-2(3H)-one)-6H-1,3,4-thiadiazin-2-amine]		38%	24%	7700 nM
N#Cc1ccc(CNC2=NN=C(c3ccc4[nH]c(=O)[nH]c4c3)CS2)cc1 [Compound 3-21, N-(4-cyanobenzyl)-5-(benzo[d]imidazol-2(3H)-one)-6H-1,3,4-thiadiazin-2-amine]		12%	47%	
N#Cc1cccc(CNC2=NN=C(c3ccc4[nH]c(=O)[nH]c4c3)CS2)c1 [Compound 3-22, N-(3-cyanobenzyl)-5-(benzo[d]imidazol-2(3H)-one)-6H-1,3,4-thiadiazin-2-amine]		12%	69%	
O=c1[nH]c2ccc(C3=NN=C(NCc4cccnc4)SC3)cc2[nH]1 [Compound 3-23, N-(pyridine-3yl)methyl-5-(benzo[d]imidazol-2(3H)-one)-6H-1,3,4-thiadiazin-2-amine]		4.2%	74%	860 nM
O=c1[nH]c2ccc(C3=NN=C(NCc4ccncc4)SC3)cc2[nH]1 [Compound 3-24, N-(pyridine-4yl)methyl-5-(benzo[d]imidazol-2(3H)-one)-6H-1,3,4-thiadiazin-2-amine]				2200 nM
CC(NC1=NN=C(c2ccc3[nH]c(=O)[nH]c3c2)CS1)c1ccccc1 (centres unmarked) [Compound 3-25, N-(1-phenylethyl)-5-(benzo[d]imidazol-2(3H)-one)-6H-1,3,4-thiadiazin-2-amine]		3.7%	57%	
CC(NC1=NN=C(c2ccc3[nH]c(=O)[nH]c3c2)CS1)c1ccc(F)cc1 (centres unmarked) [Compound 3-26, N-(1-(4-fluorophenyl)ethyl)-5-(benzo[d]imidazol-2(3H)-one)-6H-1,3,4-thiadiazin-2-amine]				2300 nM
O=c1[nH]c2ccc(C3=NN=C(Nc4ccccc4)SC3)cc2[nH]1 [Compound 3-28, N-phenyl-5-(benzo[d]imidazol-2(3H)-one)-6H-1,3,4-thiadiazin-2-amine]		41%	39%	19000 nM
O=c1[nH]c2ccc(C3=NN=C(Nc4cccc(F)c4)SC3)cc2[nH]1 [Compound 3-29, N-(3-fluorophenyl)-5-(benzo[d]imidazol-2(3H)-one)-6H-1,3,4-thiadiazin-2-amine]				7000 nM
O=c1[nH]c2ccc(C3=NN=C(Nc4cccc(C(F)(F)F)c4)SC3)cc2[nH]1 [Compound 3-30, N-(3-trifluoromethylphenyl)-5-(benzo[d]imidazol-2(3H)-one)-6H-1,3,4-thiadiazin-2-amine]				14000 nM
N#Cc1cccc(NC2=NN=C(c3ccc4[nH]c(=O)[nH]c4c3)CS2)c1 [Compound 3-31, N-(3-cyanophenyl)-5-(benzo[d]imidazol-2(3H)-one)-6H-1,3,4-thiadiazin-2-amine]				3800 nM
O=c1[nH]c2ccc(C3=NN=C(NCCc4ccccc4)SC3)cc2[nH]1 [Compound 3-34, N-(2-phenylethyl)-5-(benzo[d]imidazol-2(3H)-one)-6H-1,3,4-thiadiazin-2-amine]		0.5%	61%	1600 nM
O=c1[nH]c2ccc(C3=NN=C(NCCc4ccccn4)SC3)cc2[nH]1 [Compound 3-38, N-(2-(pyridine-1-yl)ethyl)-5-(benzo[d]imidazol-2(3H)-one)-6H-1,3,4-thiadiazin-2-amine]		8.4%	87%	1600 nM
O=c1[nH]c2ccc(C3=NN=C(NCCc4cccnc4)SC3)cc2[nH]1 [Compound 3-39, N-(2-(pyridine-3-yl)ethyl)-5-(benzo[d]imidazol-2(3H)-one)-6H-1,3,4-thiadiazin-2-amine]				2200 nM
O=c1[nH]c2ccc(C3=NN=C(NCc4cccc5ccccc45)SC3)cc2[nH]1 [Compound 3-41, N-(1-naphthylmethyl)-5-(benzo[d]imidazol-2(3H)-one)-6H-1,3,4-thiadiazin-2-amine]		36%	11%	7300 nM
NC(=O)c1cccc(CNC2=NN=C(c3ccc4[nH]c(=O)[nH]c4c3)CS2)c1 [Compound 4-2, N-(3-carboxyaminobenzyl)-5-(benzo[d]imidazol-2(3H)-one)-6H-1,3,4-thiadiazin-2-amine]				440 nM
N-(3-phenylpropyl)-5-(benzo[d]imidazol-2(3H)-one)-6H-1,3,4-thiadiazin-2-amine [Compound 3-37]				950 nM
